# Literature values as cited in patent US20260183312A1, “A ROOM-TEMPERATURE STABLE, UNBUFFERED FORMULATION OF ROCURONIUM BROMIDE INJECTION FOR INTRAVENOUS ADMINISTRATION AND A METHOD THEREOF” (MAIVA PHARMA PRIVATE LIMITED, priority 2023, published 2026).
compound,measurement,value
"C=CC[N+]1([C@H]2C[C@H]3[C@@H]4CC[C@H]5C[C@H](O)[C@@H](N6CCOCC6)C[C@]5(C)[C@H]4CC[C@]3(C)[C@H]2OC(C)=O)CCCC1 [Rocuronium, Rocuronium bromide]",Patients with severe burning pain on administration,up to 80%
